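48-hour exposure; five concentrations; linearly interpolated endpoints. Here, GI50 denotes the concentration required for 50% inhibition of growth.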 Activity calls are given as the source filed them. Cut-off read from the data, not from the text of the source: active = GI50 up to about 1.1 µM and inactive = higher.
Experiments:
Assay in all cases: inhibition of tumour cell growth, NCI panel, 48 h
HCT-15 = test system: HCT-15
M14 = test system: M14
CAKI-1 = test system: CAKI-1
SK-MEL-5 = test system: SK-MEL-5
LXFL 529 = test system: LXFL 529
OVCAR-4 = test system: OVCAR-4
UACC-62 = test system: UACC-62
U-251 = test system: U-251
OVCAR-3 = test system: OVCAR-3
UO-31 = test system: UO-31
CCRF-CEM = test system: CCRF-CEM
HOP-62 = test system: HOP-62
LOX IMVI = test system: LOX IMVI
HCT-116 = test system: HCT-116
UACC-257 = test system: UACC-257
NCI-H226 = test system: NCI-H226
MDA-MB-231 = test system: MDA-MB-231
DU-145 = test system: DU-145
PC-3 = test system: PC-3
MDA-MB-435 = test system: MDA-MB-435

Nc1ccc(C(=O)N/C(=C\c2ccc3c(c2)OCO3)c2nc3c(O)nc(S)nc3[nH]2)cc1
GI50 (HCT-15): > 100 µM
GI50 (M14): > 100 µM (inactive)
GI50 (CAKI-1): > 100 µM (inactive)
GI50 (SK-MEL-5): > 100 µM (inactive)
GI50 (LXFL 529): > 100 µM (inactive)
GI50 (OVCAR-4): > 100 µM (inactive)
GI50 (UACC-62): > 100 µM (inactive)
GI50 (U-251): > 100 µM (inactive)
GI50 (OVCAR-3): > 100 µM (inactive)
GI50 (UO-31): > 100 µM (inactive)
GI50 (CCRF-CEM): > 100 µM (inactive)

C[C@@H]1C2=CC[C@@]3(C)C(CCC3[C@H](C)[C@H]3C[C@@]4(C)O[C@@](c5cccnc5)(O3)OC4(C)C)[C@@H]2C2OC2[C@@]12CCC(=O)O2 (some centres undefined)
GI50 (HOP-62): 66.7 µM (inactive)
GI50 (HCT-15): 32.1 µM
GI50 (M14): 26.1 µM (inactive)
GI50 (LOX IMVI): 31.5 µM (inactive)
GI50 (CAKI-1): 27.6 µM (inactive)
GI50 (SK-MEL-5): 33 µM (inactive)
GI50 (LXFL 529): 35.5 µM (inactive)
GI50 (UACC-62): 30.3 µM (inactive)
GI50 (U-251): 35.6 µM (inactive)
GI50 (OVCAR-3): 24.1 µM (inactive)
GI50 (UO-31): 34.4 µM (inactive)
GI50 (CCRF-CEM): 31 µM (inactive)
GI50 (HCT-116): 40.8 µM (inactive)
GI50 (UACC-257): 44 µM (inactive)

OC1=CN=COc2ccccc21
GI50 (HOP-62): > 100 µM (inactive)
GI50 (HCT-15): > 100 µM
GI50 (M14): > 100 µM (inactive)
GI50 (LOX IMVI): > 100 µM (inactive)
GI50 (LXFL 529): > 100 µM (inactive)
GI50 (OVCAR-4): > 100 µM (inactive)
GI50 (UACC-62): > 100 µM (inactive)
GI50 (U-251): > 100 µM (inactive)
GI50 (OVCAR-3): > 100 µM (inactive)
GI50 (UO-31): 34.7 µM (inactive)
GI50 (CCRF-CEM): > 100 µM (inactive)
GI50 (HCT-116): > 100 µM (inactive)
GI50 (UACC-257): > 100 µM (inactive)

Cc1cc(Cl)ccc1NC1=NC(=O)C(CC(=O)Nc2ccc([N+](=O)[O-])cc2[N+](=O)[O-])S1 (centres undefined)
GI50 (HOP-62): 31.6 µM (inactive)
GI50 (HCT-15): 29.5 µM
GI50 (M14): 24.2 µM (inactive)
GI50 (LOX IMVI): 34.9 µM (inactive)
GI50 (CAKI-1): 26.3 µM (inactive)
GI50 (SK-MEL-5): 15.6 µM (inactive)
GI50 (LXFL 529): 18.8 µM (inactive)
GI50 (OVCAR-4): 19.2 µM (inactive)
GI50 (UACC-62): 23.8 µM (inactive)
GI50 (U-251): 23.3 µM (inactive)
GI50 (OVCAR-3): 23.6 µM (inactive)
GI50 (UO-31): 17.1 µM (inactive)
GI50 (CCRF-CEM): 23.4 µM (inactive)
GI50 (UACC-257): 28.4 µM (inactive)

C/C(=N\NC(=O)c1ccncc1)c1ccccc1Cl
GI50 (HOP-62): > 100 µM (inactive)
GI50 (HCT-15): > 100 µM
GI50 (M14): > 100 µM (inactive)
GI50 (LOX IMVI): > 100 µM (inactive)
GI50 (CAKI-1): > 100 µM (inactive)
GI50 (SK-MEL-5): > 100 µM (inactive)
GI50 (OVCAR-4): > 100 µM (inactive)
GI50 (NCI-H226): > 100 µM (inactive)
GI50 (MDA-MB-231): > 100 µM (inactive)
GI50 (UACC-62): > 100 µM (inactive)
GI50 (U-251): > 100 µM (inactive)
GI50 (OVCAR-3): > 100 µM (inactive)
GI50 (DU-145): > 100 µM (inactive)
GI50 (PC-3): > 100 µM (inactive)
GI50 (UO-31): > 100 µM (inactive)
GI50 (CCRF-CEM): > 100 µM (inactive)
GI50 (HCT-116): > 100 µM (inactive)
GI50 (MDA-MB-435): > 100 µM (inactive)
GI50 (UACC-257): > 100 µM (inactive)

Cc1cc2c3c(ccc4[nH]cc(c43)CN2c2ccc(NS(C)(=O)=O)cc2)n1
GI50 (HOP-62): 19.6 µM (inactive)
GI50 (HCT-15): > 100 µM
GI50 (M14): > 100 µM (inactive)
GI50 (LOX IMVI): > 100 µM (inactive)
GI50 (CAKI-1): 25.9 µM (inactive)
GI50 (SK-MEL-5): > 100 µM (inactive)
GI50 (OVCAR-4): > 100 µM (inactive)
GI50 (NCI-H226): 28.3 µM (inactive)
GI50 (MDA-MB-231): 22 µM (inactive)
GI50 (UACC-62): > 100 µM (inactive)
GI50 (U-251): 22.5 µM (inactive)
GI50 (OVCAR-3): 21.2 µM (inactive)
GI50 (DU-145): 49.1 µM (inactive)
GI50 (PC-3): > 100 µM (inactive)
GI50 (UO-31): 12.7 µM (inactive)
GI50 (CCRF-CEM): 8.41 µM (inactive)
GI50 (HCT-116): 11.4 µM (inactive)
GI50 (MDA-MB-435): > 100 µM (inactive)
GI50 (UACC-257): > 100 µM (inactive)

CC(C)(C)c1ccc(C(C)(C)C)c(N2C(=O)[C@@H]3[C@@H]4C=C[C@@H](C4)[C@]3(C)C2=O)c1
GI50 (HOP-62): 44 µM (inactive)
GI50 (HCT-15): 18.6 µM
GI50 (M14): 19.5 µM (inactive)
GI50 (LOX IMVI): 13.9 µM (inactive)
GI50 (CAKI-1): 22.2 µM (inactive)
GI50 (SK-MEL-5): 30.8 µM (inactive)
GI50 (OVCAR-4): 13.6 µM (inactive)
GI50 (NCI-H226): 26.9 µM (inactive)
GI50 (MDA-MB-231): 28.4 µM (inactive)
GI50 (UACC-62): 13.1 µM (inactive)
GI50 (U-251): 18.7 µM (inactive)
GI50 (OVCAR-3): 13.9 µM (inactive)
GI50 (DU-145): 20.2 µM (inactive)
GI50 (PC-3): 20.2 µM (inactive)
GI50 (UO-31): 29.3 µM (inactive)
GI50 (CCRF-CEM): 7.38 µM (inactive)
GI50 (HCT-116): 15.5 µM (inactive)
GI50 (MDA-MB-435): 15.5 µM (inactive)
GI50 (UACC-257): 23.1 µM (inactive)
